15 compounds from US20250235460A1, “COMBINATION THERAPY USING GLUCOSE-DEPENDENT INSULINOTROPIC POLYPEPTIDE RECEPTOR ANTAGONIST COMPOUNDS AND GLP-1 RECEPTOR AGONIST COMPOUNDS” (Pfizer Inc., priority 2024, published 2025) can be followed below.

The target in test [1] is human GLP-1R (Homo sapiens, UniProt P43220, L260F). The experiment in a line: CHO GLP-1R Clone C6 cAMP HTRF agonist assay (Assay 2, low receptor density). The format is cell-based. The settings on record: for EC50: geometric mean; for Emax: CHO GLP-1R clone C6, relative to saturating GLP-1 (1 μM). An excerpt:
In Table 5 and Table 6, assay data are presented to two (2) significant figures as the geometric mean (EC50s) and arithmetic mean (Emax) based on the number of replicates listed (Number). A blank cell means there was no data for that Example or the Emax was not calculated.

Test [2] deals with human GLP-1R (Homo sapiens, UniProt P43220, G168S). The experiment in a line: CHO GLP-1R Clone H6 cAMP HTRF agonist assay (Assay 1, high receptor density). To be noted: for EC50: geometric mean; for Emax: CHO GLP-1R clone H6, arithmetic mean, relative to saturating GLP-1 (1 μM), read-out: Assay 1 Emax (%). The format is cell-based. Put shortly: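 Two significant figures are used throughout. Each EC50 is the geometric mean of its replicates, and each Emax is the arithmetic mean.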
Chain of human GLP-1R (Homo sapiens, UniProt P43220, G168S) (P43220 24-463 G168S): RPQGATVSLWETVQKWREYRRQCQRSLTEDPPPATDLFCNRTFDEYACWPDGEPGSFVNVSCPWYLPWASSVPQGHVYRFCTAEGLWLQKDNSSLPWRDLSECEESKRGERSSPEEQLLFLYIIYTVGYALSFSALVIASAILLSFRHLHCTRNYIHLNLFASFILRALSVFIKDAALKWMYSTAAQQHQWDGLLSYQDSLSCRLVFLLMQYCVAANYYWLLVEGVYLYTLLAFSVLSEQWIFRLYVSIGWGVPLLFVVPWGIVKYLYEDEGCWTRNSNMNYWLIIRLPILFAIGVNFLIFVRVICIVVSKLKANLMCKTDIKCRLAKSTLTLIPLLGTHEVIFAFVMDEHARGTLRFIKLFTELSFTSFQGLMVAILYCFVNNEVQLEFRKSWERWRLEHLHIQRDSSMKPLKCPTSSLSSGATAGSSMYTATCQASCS

Chain of human GLP-1R (Homo sapiens, UniProt P43220, L260F) (P43220 24-463 L260F): as the sequence (P43220 24-463 G168S) above, with S145G, L237F counted along it

For `CCn1cncc1Cn1c(CN2CCC(c3cccc4c3OC(C)(c3ccc(Cl)cc3F)O4)CC2)nc2ccc(C(=O)O)cc21.N` (single isomer, unassigned; ent-2) [Compound 22B, Ammonium 2-({4-[2-(4-chloro-2-fluorophenyl)-2-methyl-1,3-benzodioxol-4-yl]piperidin-1-yl}methyl)-1-[(1-ethyl-1H-imidazol-5-yl)methyl]-1H-benzimidazole-6-carboxylate, ENT-2], the EC50 was 1000 nM at human GLP-1R [1] (CHO GLP-1R clone, low receptor density, cAMP HTRF) and 210 nM at human GLP-1R [2] (CHO GLP-1R clone, cAMP HTRF). Moreover, the “Assay 2 Emax” value on human GLP-1R [1] (relative to saturating full agonist GLP-1 (1 μM), arithmetic mean) turned out to be 87%.
As for `Cn1c(CN2CCC(c3cccc(OCc4cccc(C#N)c4)n3)CC2)nc2ccc(C(=O)O)cc21` [Compound 231B, 2-[(4-{6-[(3-cyanobenzyl)oxy]pyridin-2-yl}piperidin-1-yl)methyl]-1-methyl-1H-benzimidazole-6-carboxylic acid], the EC50 turned out to be 4.4 nM at human GLP-1R [1] (CHO GLP-1R clone C6, cAMP HTRF) and 0.3 nM at human GLP-1R [2] (CHO GLP-1R clone H6, cAMP HTRF). The Emax on human GLP-1R [1] (arithmetic mean) was 95%; on human GLP-1R [2], 80%.
For the compound `O=C(O)c1ccc2nc(CN3CCN(c4cccc(OCc5ccc(Cl)cc5F)n4)CC3)n(Cc3ncco3)c2c1` [Compound 151B, 2-[(4-{6-[(4-chloro-2-fluorobenzyl)oxy]pyridin-2-yl}piperazin-1-yl)methyl]-1-(1,3-oxazol-2-ylmethyl)-1H-benzimidazole-6-carboxylic acid], the EC50 on human GLP-1R [1] (CHO GLP-1R clone C6, cAMP HTRF) worked out at 280 nM; on human GLP-1R [2] (CHO GLP-1R clone H6, cAMP HTRF), 22 nM. Moreover, the maximal effect (Emax) on human GLP-1R [2] was found to be 87%.
Regarding `O=C(O)c1ccc2nc(CN3CCC(c4cccc(OCc5ccc(Cl)cc5F)n4)CC3)n(CCO)c2c1` [Compound 262B, 2-[(4-{6-[(4-chloro-2-fluorobenzyl)oxy]pyridin-2-yl}piperidin-1-yl)methyl]-1-(2-hydroxyethyl)-1H-benzimidazole-6-carboxylic acid], the EC50 was determined as 28 nM on human GLP-1R [1] (CHO GLP-1R clone C6, cAMP HTRF) and 1.6 nM at human GLP-1R [2] (CHO GLP-1R clone H6, cAMP HTRF). Also, the Emax at human GLP-1R [1] (arithmetic mean) was found to be 88%; at human GLP-1R [2], 83%.
Regarding `CC(C)n1c(CN2CCC(c3cccc(OCc4ccc(Cl)cc4F)n3)CC2)nc2ccc(C(=O)O)cc21` [Compound 258B, 2-[(4-{6-[(4-chloro-2-fluorobenzyl)oxy]pyridin-2-yl}piperidin-1-yl)methyl]-1-(propan-2-yl)-1H-benzimidazole-6-carboxylic acid], the EC50 at human GLP-1R [1] (CHO GLP-1R clone C6, cAMP HTRF) is 9.7 nM; at human GLP-1R [2] (CHO GLP-1R clone H6, cAMP HTRF) it was 0.9 nM. For the same compound, the Emax on human GLP-1R [1] (arithmetic mean) was found to be 100%; on human GLP-1R [2], 94%.
For the compound `Cn1c(CN2CCC(c3cccc(OCc4ccc(C(F)(F)F)cc4)n3)CC2)nc2ccc(C(=O)O)cc21` [Compound 232B, 1-methyl-2-{[4-(6-{[4-(trifluoromethyl)benzyl]oxy}pyridin-2-yl)piperidin-1-yl]methyl}-1H-benzimidazole-6-carboxylic acid], the EC50 was determined as 140 nM at human GLP-1R [1] (CHO GLP-1R clone C6, cAMP HTRF) and 8.6 nM at human GLP-1R [2] (CHO GLP-1R clone H6, cAMP HTRF). The Emax on human GLP-1R [1] (arithmetic mean) is 76%; at human GLP-1R [2] it was 64%.
For the compound `COCCn1c(CN2CC[C@H](c3cccc(OCc4ccc(Cl)cc4F)n3)[C@@H](O)C2)nc2ccc(C(=O)O)cc21` (racemic) [Compound 190B, rac-2-{[(3S,4S)-4-{6-[(4-chloro-2-fluorobenzyl)oxy]pyridin-2-yl}-3-hydroxypiperidin-1-yl]methyl}-1-(2-methoxyethyl)-1H-benzimidazole-6-carboxylic acid], the EC50 worked out at 68 nM at human GLP-1R [1] (CHO GLP-1R clone C6, cAMP HTRF) and 2.8 nM on human GLP-1R [2] (CHO GLP-1R clone H6, cAMP HTRF). Further, the results for the Emax on human GLP-1R [1] (arithmetic mean) and on human GLP-1R [2] were 81% and 82%, respectively.
The matching figures for `COCCn1c(CN2CCN(c3cccc(OCc4ccc(Cl)cc4F)n3)[C@H](C)C2)nc2ccc(C(=O)O)cc21` [Compound 184B, 2-{[(3R)-4-{6-[(4-chloro-2-fluorobenzyl)oxy]pyridin-2-yl}-3-methylpiperazin-1-yl]methyl}-1-(2-methoxyethyl)-1H-benzimidazole-6-carboxylic acid]: 43 nM, 3.2 nM, 84% and 77%.
The matching figures for `Cn1c(CN2CCC(c3cccc(OCc4ccccc4)n3)CC2)nc2ccc(C(=O)O)cc21` [Compound 221B, 2-((4-(6-(Benzyloxy)pyridin-2-yl)piperidin-1-yl)methyl)-1-methyl-1H-benzo[d]imidazole-6-carboxylic acid]: 23 nM, 3.4 nM, 110% and 86%.
On the same counts, the results for `COCCn1c(CN2CC[C@@H](c3cccc(OCc4ccc(Cl)cc4F)n3)C[C@H]2C)nc2ccc(C(=O)O)cc21` (relative stereo) [Compound 358B, cis 2-{[4-{6-[(4-Chloro-2-fluorobenzyl)oxy]pyridin-2-yl}-2-methylpiperidin-1-yl]methyl}-1-(2-methoxyethyl)-1H-benzimidazole-6-carboxylic acid] are 77 nM, 4.2 nM, 75% and 69%.
With `C[C@H]1CN(c2cccc(OCc3ccc(C#N)cc3F)n2)CCN1Cc1nc2ccc(C(=O)O)nc2n1C[C@@H]1CCO1` [Compound 137B, 2-{[(2S)-4-{6-[(4-cyano-2-fluorobenzyl)oxy]pyridin-2-yl}-2-methylpiperazin-1-yl]methyl}-3-[(2S)-oxetan-2-ylmethyl]-3H-imidazo[4,5-b]pyridine-5-carboxylic acid], the 50% effective concentration (EC50) on human GLP-1R [1] (CHO GLP-1R clone C6, cAMP HTRF) turned out to be 1800 nM; at human GLP-1R [2] (CHO GLP-1R clone H6, cAMP HTRF) it was 90 nM. For the same compound, the figures for the maximal response (Emax) on human GLP-1R [1] (arithmetic mean) and at human GLP-1R [2] were 89% and 76%, respectively.
As for `CCc1nc(Cn2c(CN3CCC(c4cccc(OCc5ccc(Cl)cc5F)n4)CC3)nc3ccc(C(=O)O)cc32)no1` [Compound 263B, 2-[(4-{6-[(4-chloro-2-fluorobenzyl)oxy]pyridin-2-yl}piperidin-1-yl)methyl]-1-[(5-ethyl-1,2,4-oxadiazol-3-yl)methyl]-1H-benzimidazole-6-carboxylic acid], the EC50 at human GLP-1R [1] (CHO GLP-1R clone C6, cAMP HTRF) was found to be 670 nM; at human GLP-1R [2] (CHO GLP-1R clone H6, cAMP HTRF), 33 nM. The Emax at human GLP-1R [1] (arithmetic mean) came to 110%; on human GLP-1R [2] it was 80%.
Turning to `Cc1nc2nc(CN3CCC(c4cccc(OCc5ccc(Cl)cc5F)n4)CC3)n(C)c2cc1C(=O)O` [Compound 209B, 2-[(4-{6-[(4-chloro-2-fluorobenzyl)oxy]pyridin-2-yl}piperidin-1-yl)methyl]-1,5-dimethyl-1H-imidazo[4,5-b]pyridine-6-carboxylic acid], the EC50 at human GLP-1R [1] (CHO GLP-1R clone C6, cAMP HTRF) was 190 nM; on human GLP-1R [2] (CHO GLP-1R clone H6, cAMP HTRF), 7 nM. Besides, the maximal response (Emax) on human GLP-1R [1] (arithmetic mean) stood at 80%; on human GLP-1R [2], 59%.
On the same counts, the results for `CN(C)CCn1c(CN2CCC(c3cccc(OCc4ccc(Cl)cc4F)n3)CC2)nc2ccc(C(=O)O)cc21` [Compound 238B, 2-[(4-{6-[(4-chloro-2-fluorobenzyl)oxy]pyridin-2-yl}piperidin-1-yl)methyl]-1-[2-(dimethylamino)ethyl]-1H-benzimidazole-6-carboxylic acid] are 11 nM, 0.71 nM, 100% and 81%.
On the same counts, the results for `O=C(O)c1ccc2nc(CN3CCC(c4cccc(OCc5ccc(Cl)cc5F)n4)CC3)n(C3CCOC3)c2c1` (stereo not shown) [Compound 301B, 2-[(4-{6-[(4-chloro-2-fluorobenzyl)oxy]pyridin-2-yl}piperidin-1-yl)methyl]-1-(tetrahydrofuran-3-yl)-1H-benzimidazole-6-carboxylic acid] are 1500 nM, 120 nM, 92% and 80%.
